ChEMBL document CHEMBL4715750, “Synthesis and in vitro, ex-vivo and in vivo activity of hybrid compounds linking a potent ROS and RNS scavenger activity with diverse substrates addressed to pass across the blood-brain barrier” (Eur J Med Chem, 2016)
Activity calls are given as the source filed them. The calls are words filed in the database; no cut-off is given here.

Legend:
[1] = Antioxidant activity assessed as DPPH radical scavenging activity incubated for 60 mins in absence of light; assay type: functional
[2] = Permeability of the compound at pH 7.4 by PAMPA-BBB assay; assay type: ADME; conditions: read-out: permeability
SH-SY5Y [3] = assay: Antioxidant activity in human SH-SY5Y cells assessed as inhibition of H2O2-induced DCFH oxidation measured after 1 hr by DCFH-DA dye based fluorescence assay; assay type: functional, cell-based
[4] = Cytotoxicity against human SH-SY5Y cells assessed as cell viability at 100 uM measured after 2 hrs by MTT assay relative to control; assay type: cell-based; conditions: read-out: Activity
[5] = Cytotoxicity against human SH-SY5Y cells assessed as cell viability at 50 uM measured after 2 hrs by MTT assay relative to control; assay type: cell-based; conditions: read-out: Activity
[6] = Cytotoxicity against human SH-SY5Y cells assessed as cell viability at 25 uM measured after 2 hrs by MTT assay relative to control; assay type: cell-based; conditions: read-out: Activity
[7] = Cytotoxicity against human SH-SY5Y cells assessed as cell viability at 12.5 uM measured after 2 hrs by MTT assay relative to control; assay type: cell-based; conditions: read-out: Activity
[8] = Cytotoxicity against human SH-SY5Y cells assessed as cell viability at 6.3 uM measured after 2 hrs by MTT assay relative to control; assay type: cell-based; conditions: read-out: Activity
[9] = Cytotoxicity against human SH-SY5Y cells assessed as cell viability at 3.1 uM measured after 2 hrs by MTT assay relative to control; assay type: cell-based; conditions: read-out: Activity
[10] = Cytotoxicity against human SH-SY5Y cells assessed as cell viability at 1.6 uM measured after 2 hrs by MTT assay relative to control; assay type: cell-based; conditions: read-out: Activity
[11] = Cytotoxicity against human SH-SY5Y cells assessed as cell viability at 0.8 uM measured after 2 hrs by MTT assay relative to control; assay type: cell-based; conditions: read-out: Activity
[12] = Cytotoxicity against human SH-SY5Y cells assessed as cell viability at 100 uM measured after 24 hrs by MTT assay relative to control; assay type: cell-based; conditions: read-out: Activity
[13] = Cytotoxicity against human SH-SY5Y cells assessed as cell viability at 50 uM measured after 24 hrs by MTT assay relative to control; assay type: cell-based; conditions: read-out: Activity
[14] = Cytotoxicity against human SH-SY5Y cells assessed as cell viability at 25 uM measured after 24 hrs by MTT assay relative to control; assay type: cell-based; conditions: read-out: Activity
[15] = Cytotoxicity against human SH-SY5Y cells assessed as cell viability at 12.5 uM measured after 24 hrs by MTT assay relative to control; assay type: cell-based; conditions: read-out: Activity
[16] = Cytotoxicity against human SH-SY5Y cells assessed as cell viability at 6.3 uM measured after 24 hrs by MTT assay relative to control; assay type: cell-based; conditions: read-out: Activity
[17] = Cytotoxicity against human SH-SY5Y cells assessed as cell viability at 3.1 uM measured after 24 hrs by MTT assay relative to control; assay type: cell-based; conditions: read-out: Activity
[18] = Cytotoxicity against human SH-SY5Y cells assessed as cell viability at 1.6 uM measured after 24 hrs by MTT assay relative to control; assay type: cell-based; conditions: read-out: Activity
[19] = Cytotoxicity against human SH-SY5Y cells assessed as cell viability at 0.8 uM measured after 24 hrs by MTT assay relative to control; assay type: cell-based; conditions: read-out: Activity
SH-SY5Y [20] = assay: Cytoprotective activity against DMSO-induced toxicity in human SH-SY5Y cells; assay type: functional, cell-based

COc1cc2c(cc1O)CCC(C)(CC(=O)N1CCC[C@H]1C(=O)O)O2 (stereo partly specified)
IC50 [1]: 19.1 µM | Papp [2]: 0.04 ×10⁻⁶ cm/s | Activity (SH-SY5Y [3]): Dose-dependent effect | IC50 (SH-SY5Y [3]): 41.4 µM | viability at 2 h, 100 µM [4]: 78.8% | viability at 2 h, 50 µM [5]: 100% | viability at 2 h, 25 µM [6]: 100% | viability at 2 h, 12.5 µM [7]: 100% | viability at 2 h, 6.3 µM [8]: 98.8% | viability at 2 h, 3.1 µM [9]: 100% | viability at 2 h, 1.6 µM [10]: 99.2% | viability at 2 h, 0.8 µM [11]: 100% | viability at 24 h, 100 µM [12]: 79.6% | viability at 24 h, 50 µM [13]: 100% | viability at 24 h, 25 µM [14]: 95.8% | viability at 24 h, 12.5 µM [15]: 100% | viability at 24 h, 6.3 µM [16]: 100% | viability at 24 h, 3.1 µM [17]: 100% | viability at 24 h, 1.6 µM [18]: 93.2% | viability at 24 h, 0.8 µM [19]: 92.8%

COc1cc2c(cc1O)CCC(C)(CC(N)=O)O2 (stereo unspecified)
IC50 [1]: 10.5 µM | Papp [2]: 0.28 ×10⁻⁶ cm/s | Activity (SH-SY5Y [3]): Dose-dependent effect | IC50 (SH-SY5Y [3]): 71.2 µM | viability at 2 h, 100 µM [4]: 54.7% | viability at 2 h, 50 µM [5]: 74.9% | viability at 2 h, 25 µM [6]: 83.6% | viability at 2 h, 12.5 µM [7]: 85.8% | viability at 2 h, 6.3 µM [8]: 80.8% | viability at 2 h, 3.1 µM [9]: 84.8% | viability at 2 h, 1.6 µM [10]: 96.1% | viability at 2 h, 0.8 µM [11]: 88.2% | viability at 24 h, 100 µM [12]: 51.4% | viability at 24 h, 50 µM [13]: 99.2% | viability at 24 h, 25 µM [14]: 100% | viability at 24 h, 12.5 µM [15]: 100% | viability at 24 h, 6.3 µM [16]: 100% | viability at 24 h, 3.1 µM [17]: 100% | viability at 24 h, 1.6 µM [18]: 100% | viability at 24 h, 0.8 µM [19]: 96.7% | Activity (SH-SY5Y [20]): Active

Cc1c(C)c2c(c(C)c1O)CCC(C)(C(=O)O)O2 (stereo unspecified) [TROLOX]
IC50 [1]: 15.7 µM | Papp [2]: 1.04 ×10⁻⁶ cm/s | Activity (SH-SY5Y [3]): Dose-dependent effect | IC50 (SH-SY5Y [3]): 82.3 µM | viability at 2 h, 100 µM [4]: 86.5% | viability at 2 h, 50 µM [5]: 92.4% | viability at 2 h, 25 µM [6]: 99% | viability at 2 h, 12.5 µM [7]: 95% | viability at 2 h, 6.3 µM [8]: 97.4% | viability at 2 h, 3.1 µM [9]: 97.6% | viability at 2 h, 1.6 µM [10]: 88.5% | viability at 2 h, 0.8 µM [11]: 93.2% | viability at 24 h, 100 µM [12]: 68% | viability at 24 h, 50 µM [13]: 81.9% | viability at 24 h, 25 µM [14]: 86.4% | viability at 24 h, 12.5 µM [15]: 82.8% | viability at 24 h, 6.3 µM [16]: 83.7% | viability at 24 h, 3.1 µM [17]: 79.6% | viability at 24 h, 1.6 µM [18]: 87.6% | viability at 24 h, 0.8 µM [19]: 84.6%

COc1cc2c(cc1O)CCC(C)(CC(=O)N[C@@H](CCC(N)=O)C(=O)O)O2 (stereo partly specified)
IC50 [1]: 15 µM | Activity (SH-SY5Y [3]): Dose-dependent effect | IC50 (SH-SY5Y [3]): 78 µM | viability at 2 h, 100 µM [4]: 86.5% | viability at 2 h, 50 µM [5]: 100% | viability at 2 h, 25 µM [6]: 100% | viability at 2 h, 12.5 µM [7]: 100% | viability at 2 h, 6.3 µM [8]: 100% | viability at 2 h, 3.1 µM [9]: 100% | viability at 2 h, 1.6 µM [10]: 97.1% | viability at 2 h, 0.8 µM [11]: 92.8% | viability at 24 h, 100 µM [12]: 58.2% | viability at 24 h, 50 µM [13]: 83.2% | viability at 24 h, 25 µM [14]: 91.8% | viability at 24 h, 12.5 µM [15]: 84.8% | viability at 24 h, 6.3 µM [16]: 84% | viability at 24 h, 3.1 µM [17]: 100% | viability at 24 h, 1.6 µM [18]: 89.4% | viability at 24 h, 0.8 µM [19]: 92.8%

COc1cc2c(cc1O)CCC(C)(CC(=O)N[C@@H](Cc1c[nH]c3ccccc13)C(=O)O)O2 (stereo partly specified)
IC50 [1]: 15.5 µM | Papp [2]: 1.18 ×10⁻⁶ cm/s | Activity (SH-SY5Y [3]): Dose-dependent effect | IC50 (SH-SY5Y [3]): > 200 µM | viability at 2 h, 100 µM [4]: 95.4% | viability at 2 h, 50 µM [5]: 95.2% | viability at 2 h, 25 µM [6]: 100% | viability at 2 h, 12.5 µM [7]: 100% | viability at 2 h, 6.3 µM [8]: 100% | viability at 2 h, 3.1 µM [9]: 97.9% | viability at 2 h, 1.6 µM [10]: 97.2% | viability at 2 h, 0.8 µM [11]: 94.8% | viability at 24 h, 100 µM [12]: 65.9% | viability at 24 h, 50 µM [13]: 92.8% | viability at 24 h, 25 µM [14]: 90% | viability at 24 h, 12.5 µM [15]: 91.2% | viability at 24 h, 6.3 µM [16]: 94.9% | viability at 24 h, 3.1 µM [17]: 100% | viability at 24 h, 1.6 µM [18]: 96% | viability at 24 h, 0.8 µM [19]: 94.6% | Activity (SH-SY5Y [20]): Active
